{
  "source": "patent US20220218693A1",
  "about": "“IMMUNE CHECKPOINT INHIBITOR COMBINATION THERAPY USING QUINOLINE CARBOXAMIDE DERIVATIVE” (KABUSHIKI KAISHA YAKULT HONSHA, priority 2019, published 2022)",
  "type_in_all_cases": "in vivo, BALB/c mice",
  "key": {"[1]": {"tested_on": "mouse fibrosarcoma CMS5a cells", "assay": "Antitumor effect of combined administration in CMS5a tumor-bearing mice (Example 3)", "settings": "STX-1159 40 mg/kg p.o. days 5 to 9 + PD-1 Ab 200 μg/mouse i.p. days 12, 14 and 16; t-test versus control; FIG. 3", "source_text": "(§1) Six-week-old female BALB/c mice were purchased from Japan SLC, Inc., conditioned and raised for about a week in University of Shizuoka, Experimental Animal Center, and then used for experiments.\n(§2) Hair on a back part and ventral parts of the BALB/c mouse was shaved, and 1×10^6 mouse fibrosarcoma CMS5a cells were subcutaneously transplanted in each of the left and right ventral parts (day 0). Five days after the transplantation, the longer diameter (mm) and the shorter diameter (mm) of the tumor were measured using a digital caliper (A&D Company, Limited), and a tumor volume was calculated. The expression for calculation of the tumor volume was as follows: tumor volume (mm^3)=0.5×(longer diameter mm)×(shorter diameter mm)^2. An average of the tumor volumes on the left and the right was calculated for each individual, and on the basis of the thus-obtained value, the mice were divided into groups in such a manner that the variations in tumor volume between individuals in the groups were the same.\nSTX-1159 was orally administered at 40 mg/kg continuously for five days. […]\nThe evaluation item was an individual tumor volume. From day 5, the longer diameter (mm) and the shorter diameter (mm) of the tumor were measured at an interval of one or two days using a digital caliper. […]"}, "[2]": {"tested_on": "mouse bowel cancer cell line CT26 cells", "assay": "Antitumor effect of combined administration in CT26 tumor-bearing mice (Example 2)", "settings": "STX-1159 40 mg/kg p.o. days 6, 8 and 10 + PD-1 Ab 50 μg/mouse i.p. days 8, 10 and 13; compared with either agent alone; FIG. 2", "source_text": "as §1\nas §2, with “bowel cancer cell line CT26” for “fibrosarcoma CMS5a”, “cells (ATCCs)” for “cells”, “Six” for “Five”\nSTX-1159 was orally administered at 40 mg/kg three times every other day. […]\nThe evaluation item was an individual tumor volume. From day 6, the longer diameter (mm) and the shorter diameter (mm) of the tumor were measured at an interval of one to four days using a digital caliper. […]"}, "[3]": {"tested_on": "mouse bowel cancer cell line CT26 cells", "assay": "Antitumor effect of combined administration in CT26 tumor-bearing mice (Example 1)", "settings": "FIG. 1", "source_text": "Six-week-old female BALB/c mice (72 mice) were purchased from Japan SLC, Inc., conditioned and raised for 5 days in University of Shizuoka, Experimental Animal Center, and then used for experiments.\nHair on a back part and ventral parts of the BALB/c mouse was shaved, and 1×10^6 mouse bowel cancer cell line CT26 cells (ATCCs) were subcutaneously transplanted in each of the left and right ventral parts (day 0). Five days after the transplantation, the longer diameter (mm) and the shorter diameter (mm) of the tumor were measured using a digital caliper (A&D Company, Limited), and a tumor volume was calculated. […]\nAn average of the tumor volumes on the left and the right was calculated for each individual, and on the basis of the thus-obtained value, the mice were divided into eight groups (nine mice in each group) in such a manner that the variations in tumor volume between individuals in the groups were the same. […]\nThe evaluation item was an average of the tumor volumes on the left and the right in each individual. From day 5, the longer diameter (mm) and the shorter diameter (mm) of the tumor were measured at an interval of one day or two days using a digital caliper. […] An average of the tumor volumes on the left and the right was calculated for each individual. […]"}},
  "data": [
    {"smiles": "O=C(Nc1nnc(-c2ccco2)o1)c1cc(-c2ccccc2)nc2ccc(OC(F)(F)F)cc12", "note": "[STX-1159, N-[5-(2-furyl)-1,3,4-oxadiazol-2-yl]-2-phenyl-6-trifluoromethoxy-4-quinoline carboxamide]", "values": [
      {"measurement": "tumor shrinkage (tumor volume) versus control group", "setting": "[1]", "result": "showed more significant tumor shrinkage over the control group"},
      {"measurement": "antitumor effect (tumor volume)", "setting": "[2]", "result": "much higher antitumor effect"},
      {"measurement": "antitumor effect (tumor volume)", "setting": "[3]; STX-1159 40 mg/kg p.o. days 5 to 9 in advance + PD-1 Ab 50 μg/mouse i.p. days 12, 14 and 16, compared with simultaneous and later administration groups", "result": "much higher antitumor effect"},
      {"measurement": "antitumor effect (tumor volume)", "setting": "[3]; simultaneous: STX-1159 40 mg/kg p.o. days 12 to 16 + PD-1 Ab 50 μg/mouse i.p. days 12, 14 and 16, compared with each single-agent group", "result": "antitumor effect was lower"}
    ]}
  ]
}
